Measured values published in patent publication US20240310368A1, “DETECTION KIT FOR CATECHOLAMINES AND METABOLITES THEREOF IN PLASMA/URINE AND DETECTION METHOD THEREOF” (Calibra Scientific, Inc., priority 2023, published 2024).
Several values for one entry are separate records, joined by “and”; a condition that tells them apart may be missing. Identical values can stand only once.

Assays:
[1] = Stabilizing effect of accelerated stabilizers (37° C., 14 days) on standard products and quality control products then accelerated at 30° C. for 2 days; assay type: physicochemical; settings: for Relative deviation %: 2 days at 30° C. vs Control; for concentration in standard products and quality control products, 2 days at 30° C. / concentration in standard products and quality control products, Control: single replicates
Experimental: Standard products of epinephrine, norepinephrine, dopamine, metanephrine, normetanephrine and 3-methoxytyramine were prepared into mixed solutions, and blank plasma containing a stabilizer was used as a matrix to prepare standard products and quality control products.
(§1) In the present example, the stabilizing effect of the stabilizers on plasma samples, standard products and quality control products after acceleration was further verified. The stabilizers were accelerated at 37° C. for 14 days (equivalent to 1 year at 2-8° C.), added into the plasma samples in proportions and then accelerated at 30° C. for 1.5 days (equivalent to 12 months at −30° C. to −15° C.). The stabilizers were accelerated at 37° C. for 14 days (equivalent to 1 year at 2-8° C.), added into the standard products and the quality control products in proportions and then accelerated at 30° C. for 2 days (equivalent to 18 months at −30° C. to −15° C.).

[2] = Stabilizing effect of accelerated stabilizers (37° C., 14 days) on plasma samples then accelerated at 30° C. for 1.5 days; assay type: physicochemical, human; settings: for Relative deviation %: Accelerate vs Control; for concentration in plasma samples, Control / concentration in plasma samples, Accelerate: single replicates; for concentration in plasma samples, Accelerate: stabilizer accelerated 37° C. 14 days, plasma then accelerated at 30° C. for 1.5 days
Experimental: as §1

[3] = Acceleration test of plasma samples with stabilizers (30° C. for 1.5 days, against control plasma stored at −95° C. to −65° C.), LC-MS/MS Area/IS Area
Experimental: Samples were collected in EDTA-anticoagulant blood collection tubes and then rapidly subjected to […] centrifugation at 2-8° C. to separate plasma. 0.95 mL of the plasma was transferred into centrifuge tubes. After 50 μL of the stabilizer was added for uniform mixing, the plasma samples were stored by refrigeration or freezing.
• (1) 500 μL of plasma/urine samples to be tested were taken, and 50 μL of the internal standard solution and 500 μL of the buffer solution were sequentially added for vertex mixing to obtain diluted samples. • (2) The magnetic medium composite material suspension was subjected to full vortex treatment to reach a suspension state, and then subsequent operation was performed. • (3) Different reagents were added into wells of a preprocessing plate according to the follow operation: adding 200 μL of the magnetic medium composite material suspension in column 1, adding 500 μL of the balance solution in column 2, adding 850 μL of the diluted samples in column 3, adding 500 μL of the balance solution in column 4, adding 200 μL of a rinsing solution in column 5, and adding 100 μL of the elution solution in column 6. • (4) An extraction operation procedure was carried out, as shown in Table 5.
Each group of the plasma samples were stored at 30° C. for 1.5 days, and plasma without addition of any compounds stored at −95° C. to −65° C. was used as a control. […] The stabilizing effect of the single-component stabilizers on the plasma samples was investigated.
The stabilizers were mixed with plasma (the volume ratio of the stabilizers to plasma samples was 1:19), and high concentration plasma samples and low concentration plasma samples were prepared by the method provided in Example 1.
With plasma stored at −95° C. to −65° C. as a control, the above plasma samples were separately stored at 30° C. for 1.5 days to investigate the stability. […]

[4] = samples at a high concentration level
[5] = samples at a low concentration level

Structure (SMILES)	Relative deviation % ([1]; High concentration level) [%]	average concentration, 2 days at 30° C. ([1]; High concentration level) [pg/mL]	concentration in standard products and quality control products, 2 days at 30° C. ([1]; High concentration level)	average concentration, Control ([1]; High concentration level) [pg/mL]	concentration in standard products and quality control products, Control ([1]; High concentration level)	Relative deviation % ([1]; Low concentration level) [%]	average concentration, 2 days at 30° C. ([1]; Low concentration level) [pg/mL]	concentration in standard products and quality control products, 2 days at 30° C. ([1]; Low concentration level)	average concentration, Control ([1]; Low concentration level) [pg/mL]	concentration in standard products and quality control products, Control ([1]; Low concentration level)	Relative deviation % ([1]; Medium concentration level) [%]	average concentration, 2 days at 30° C. ([1]; Medium concentration level) [pg/mL]	concentration in standard products and quality control products, 2 days at 30° C. ([1]; Medium concentration level)	average concentration, Control ([1]; Medium concentration level) [pg/mL]	concentration in standard products and quality control products, Control ([1]; Medium concentration level)	Relative deviation % [2, 4] [%]	concentration in plasma samples, Control [2, 4]	concentration in plasma samples, Accelerate [2, 4]	Relative deviation % [2, 5] [%]	concentration in plasma samples, Control [2, 5]	other results
NCCc1ccc(O)c(O)c1 [DA]	0.3	1485.59	1.46403 ng/mL and 1.43079 ng/mL and 1.56195 ng/mL	1481.12	1.46201 ng/mL and 1.49448 ng/mL and 1.48688 ng/mL	−0.29	17.86	0.01762 ng/mL and 0.01837 ng/mL and 0.01758 ng/mL	17.91	0.01722 ng/mL and 0.0181 ng/mL and 0.01841 ng/mL	−2.2	294.46	0.2821 ng/mL and 0.31535 ng/mL and 0.28595 ng/mL	301.09	0.30826 ng/mL and 0.30148 ng/mL and 0.29352 ng/mL	−2.0	0.55903 ng/mL and 0.52998 ng/mL and 0.57132 ng/mL	0.55049 ng/mL and 0.5487 ng/mL and 0.52712 ng/mL	−0.8	0.0743 ng/mL and 0.09053 ng/mL and 0.08768 ng/mL	concentration in plasma samples, Accelerate [2, 5]: 0.08786 ng/mL and 0.07829 ng/mL and 0.08442 ng/mL
COc1cc(CCN)ccc1O [Group 3-MT]	−3.54	1001.8	1.00258 ng/mL and 0.99459 ng/mL and 1.00823 ng/mL	1038.58	1.01486 ng/mL and 1.01865 ng/mL and 1.08223 ng/mL	−8.93	10.93	0.01106 ng/mL and 0.01049 ng/mL and 0.01124 ng/mL	12	0.01245 ng/mL and 0.01066 ng/mL and 0.0129 ng/mL	−4.98	182.01	0.16702 ng/mL and 0.19198 ng/mL and 0.18703 ng/mL	191.55	0.19324 ng/mL and 0.19663 ng/mL and 0.18479 ng/mL	−2.0	0.38458 ng/mL and 0.38086 ng/mL and 0.37856 ng/mL	0.35799 ng/mL and 0.37926 ng/mL and 0.38345 ng/mL	0.6	0.06389 ng/mL and 0.06483 ng/mL and 0.06347 ng/mL	concentration in plasma samples, Accelerate [2, 5]: 0.06307 ng/mL and 0.062 ng/mL and 0.06825 ng/mL
CC(=O)O [acetic acid]	–	–	–	–	–	–	–	–	–	–	–	–	–	–	–	–	–	–	–	–	Ratio (Area/IS Area) E ([3]; plasma at a high concentration level, plasma containing 0.5% of the acid, control plasma 0.624): 0; Ratio (Area/IS Area) NE ([3]; plasma at a high concentration level, plasma containing 0.5% of the acid, control plasma 1.522): 0; Ratio (Area/IS Area) DA ([3]; plasma at a high concentration level, plasma containing 0.5% of the acid, control plasma 2.27): 0; Ratio (Area/IS Area) E ([3]; plasma at a high concentration level, plasma containing 2.0% of the acid, control plasma 0.624): 0; Ratio (Area/IS Area) NE ([3]; plasma at a high concentration level, plasma containing 2.0% of the acid, control plasma 1.522): 0; Ratio (Area/IS Area) DA ([3]; plasma at a high concentration level, plasma containing 2.0% of the acid, control plasma 2.27): 0; Ratio (Area/IS Area) E ([3]; plasma at a low concentration level, plasma containing 0.5% of the acid, control plasma 0.079): 0; Ratio (Area/IS Area) NE ([3]; plasma at a low concentration level, plasma containing 0.5% of the acid, control plasma 0.219): 0; Ratio (Area/IS Area) DA ([3]; plasma at a low concentration level, plasma containing 0.5% of the acid, control plasma 0.233): 0; Ratio (Area/IS Area) E ([3]; plasma at a low concentration level, plasma containing 2.0% of the acid, control plasma 0.079): 0; Ratio (Area/IS Area) NE ([3]; plasma at a low concentration level, plasma containing 2.0% of the acid, control plasma 0.219): 0; Ratio (Area/IS Area) DA ([3]; plasma at a low concentration level, plasma containing 2.0% of the acid, control plasma 0.233): 0
